According to patent publication US10428027B2, “Sulfinylphenyl or sulfonimidoylphenyl benzazepines” (Hoffmann La-Roche Inc., priority 2015, dated 2019):

Tests used:
[1] = target: T1, human TLR8 (Homo sapiens, UniProt Q9NR97); test: HEK-Blue human TLR8 cells, NF-κB SEAP reporter assay; format: cell-based; settings: stimulation for 20 hours, SEAP reporter read at 640 nm
T1 construct: host or cells: HEK-Blue human TLR8 cells (HEK293-derived; own knowledge: stably transfected with the human TLR8 gene)
T1 sequence (Q9NR97 27-1041): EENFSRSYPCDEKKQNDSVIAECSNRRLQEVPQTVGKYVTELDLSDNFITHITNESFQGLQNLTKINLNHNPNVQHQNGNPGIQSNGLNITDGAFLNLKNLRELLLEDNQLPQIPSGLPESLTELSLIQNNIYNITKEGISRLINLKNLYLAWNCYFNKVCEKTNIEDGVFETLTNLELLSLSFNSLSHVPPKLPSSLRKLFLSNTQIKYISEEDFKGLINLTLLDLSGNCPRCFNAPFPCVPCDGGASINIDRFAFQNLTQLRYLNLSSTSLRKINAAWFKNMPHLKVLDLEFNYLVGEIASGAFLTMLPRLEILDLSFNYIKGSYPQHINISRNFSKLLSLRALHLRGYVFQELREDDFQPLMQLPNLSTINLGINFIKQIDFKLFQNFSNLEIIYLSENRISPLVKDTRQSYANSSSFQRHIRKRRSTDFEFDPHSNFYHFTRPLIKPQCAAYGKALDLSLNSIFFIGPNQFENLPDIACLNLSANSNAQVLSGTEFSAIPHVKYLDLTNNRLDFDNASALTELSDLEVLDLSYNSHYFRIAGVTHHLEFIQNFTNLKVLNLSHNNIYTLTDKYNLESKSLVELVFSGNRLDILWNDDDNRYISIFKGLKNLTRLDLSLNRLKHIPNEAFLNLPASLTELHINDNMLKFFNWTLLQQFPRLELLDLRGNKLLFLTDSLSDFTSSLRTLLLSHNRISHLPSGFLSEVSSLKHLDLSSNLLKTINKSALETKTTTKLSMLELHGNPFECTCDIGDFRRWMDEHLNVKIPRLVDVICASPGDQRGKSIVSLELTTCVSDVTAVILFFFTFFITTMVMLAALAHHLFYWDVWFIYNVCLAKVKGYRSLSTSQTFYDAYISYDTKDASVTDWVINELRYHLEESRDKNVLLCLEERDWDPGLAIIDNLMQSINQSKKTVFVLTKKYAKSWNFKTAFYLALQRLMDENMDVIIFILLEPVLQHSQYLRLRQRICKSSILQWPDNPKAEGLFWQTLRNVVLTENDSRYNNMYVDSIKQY
From the text: (§1) For TLR8 and TLR7 activity testing, HEK-Blue human TLR8 or TLR7 cells (Invivogen, San Diego, Calif., USA) are used, respectively. These cells are designed for studying the stimulation of human TLR8 or TLR7 by monitoring the activation of NF-κB. A SEAP (secreted embryonic alkaline phosphatase) reporter gene is placed under the control of the IFN-b minimal promoter fused to five NF-κB and AP-1-binding sites. Therefore the reporter expression is regulated by the NF-κB promoter upon stimulation of human TLR8 or TLR7 for 20 hours. The cell culture supernatant SEAP reporter activity was determined using Quanti Blue kit (Invivogen, San Diego, Ca, USA) at a wavelength of 640 nm, a detection medium that turns purple/blue in the presence of alkaline phosphatase.

[2] = target: T2, human TLR7 (Homo sapiens, UniProt Q9NYK1); test: HEK-Blue human TLR7 cells, NF-κB SEAP reporter assay; format: cell-based; settings: stimulation for 20 hours, SEAP reporter read at 640 nm
T2 construct: host or cells: HEK-Blue human TLR7 cells (HEK293-derived; own knowledge: stably transfected with the human TLR7 gene)
T2 sequence (Q9NYK1 27-1049): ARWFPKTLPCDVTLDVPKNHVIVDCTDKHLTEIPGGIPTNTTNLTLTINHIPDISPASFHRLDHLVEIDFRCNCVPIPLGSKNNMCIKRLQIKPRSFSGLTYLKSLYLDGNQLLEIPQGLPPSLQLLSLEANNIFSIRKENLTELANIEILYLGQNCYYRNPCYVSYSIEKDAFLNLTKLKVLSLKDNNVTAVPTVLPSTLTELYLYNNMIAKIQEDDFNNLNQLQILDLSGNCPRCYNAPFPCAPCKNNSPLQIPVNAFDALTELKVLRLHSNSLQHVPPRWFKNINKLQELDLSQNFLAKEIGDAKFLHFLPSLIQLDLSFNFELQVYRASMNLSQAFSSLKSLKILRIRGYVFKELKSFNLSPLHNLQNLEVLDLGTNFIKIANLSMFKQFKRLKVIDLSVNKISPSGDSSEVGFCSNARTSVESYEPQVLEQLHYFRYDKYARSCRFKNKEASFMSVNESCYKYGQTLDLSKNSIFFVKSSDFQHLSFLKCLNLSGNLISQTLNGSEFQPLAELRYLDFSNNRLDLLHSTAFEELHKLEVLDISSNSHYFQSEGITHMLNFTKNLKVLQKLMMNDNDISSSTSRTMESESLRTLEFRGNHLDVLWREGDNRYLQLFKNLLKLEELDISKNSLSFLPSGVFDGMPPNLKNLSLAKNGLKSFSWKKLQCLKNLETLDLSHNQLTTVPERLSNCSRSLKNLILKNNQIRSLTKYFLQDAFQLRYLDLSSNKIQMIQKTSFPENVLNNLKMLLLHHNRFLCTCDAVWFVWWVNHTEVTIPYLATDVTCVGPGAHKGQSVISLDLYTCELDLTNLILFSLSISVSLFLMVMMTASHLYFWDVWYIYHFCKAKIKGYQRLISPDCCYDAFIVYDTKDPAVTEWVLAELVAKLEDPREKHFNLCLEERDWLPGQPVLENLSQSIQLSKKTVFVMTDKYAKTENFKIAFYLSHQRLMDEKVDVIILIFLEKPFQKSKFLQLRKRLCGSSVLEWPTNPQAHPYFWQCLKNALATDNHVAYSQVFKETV
From the text: as §1

SMILES | EC50 [1] | EC50 [2]
CCCN(CCC)C(=O)C1=Cc2ccc(-c3ccc([S+]([O-])CC)cc3)cc2N=C(N)C1 (stereo not shown) [Example 8, 2-Amino-8-(4-ethylsulfinylphenyl)-N,N-dipropyl-3H-1-benzazepine-4-carboxamide] | 0.021 µM | 23 µM
CCCN(CCC)C(=O)C1=Cc2ccc(-c3ccc(S(C)(=N)=O)cc3)cc2N=C(N)C1 (stereo not shown) [Example 2, 2-Amino-8-[4-(methylsulfonimidoyl)phenyl]-N,N-dipropyl-3H-1-benzazepine-4-carboxamide] | 0.025 µM | 25 µM
CCCN(CCC)C(=O)C1=Cc2ccc(-c3cccc([S+](C)[O-])c3)cc2N=C(N)C1 (stereo not shown) [Example 5, 2-Amino-8-(3-methylsulfinylphenyl)-N,N-dipropyl-3H-1-benzazepine-4-carboxamide] | 0.004 µM | 12.1 µM
CCCN(CCC)C(=O)C1=Cc2ccc(-c3ccc([S+](C)[O-])cc3)cc2N=C(N)C1 (stereo not shown) [Example 1, 2-Amino-8-(4-methylsulfinylphenyl)-N,N-dipropyl-3H-1-benzazepine-4-carboxamide] | 0.026 µM | 19 µM
CCCN(CCC)C(=O)C1=Cc2ccc(-c3cncc([S+](C)[O-])c3)cc2N=C(N)C1 (stereo not shown) [Example 4, 2-Amino-8-(5-methylsulfinyl-3-pyridyl)-N,N-dipropyl-3H-1-benzazepine-4-carboxamide] | 0.008 µM | 2.4 µM
CCCN(CCC)C(=O)C1=Cc2ccc(-c3ccc(S(=N)(=O)CC)cc3)cc2N=C(N)C1 (stereo not shown) [Example 9, 2-Amino-8-[4-(ethylsulfonimidoyl)phenyl]-N,N-dipropyl-3H-1-benzazepine-4-carboxamide] | 0.025 µM | 32 µM
CCCN(CCC)C(=O)C1=Cc2ccc(-c3cccc([S+]([O-])CC)c3)cc2N=C(N)C1 (stereo not shown) [Example 10, 2-Amino-8-(3-ethylsulfinylphenyl)-N,N-dipropyl-3H-1-benzazepine-4-carboxamide] | 0.008 µM | 16 µM
CCCN(CCC)C(=O)C1=Cc2ccc(-c3cccc(S(C)(=O)=NCCOCCO)c3)cc2N=C(N)C1 (stereo not shown) [Example 3, 2-Amino-8-[3-[N-[2-(2-hydroxyethoxy)ethyl]-S-methyl-sulfonimidoyl]phenyl]-N,N-dipropyl-3H-1-benzazepine-4-carboxamide] | 0.011 µM | 55 µM
CCCN(CCC)C(=O)C1=Cc2ccc(-c3cccc(S(=N)(=O)CC)c3)cc2N=C(N)C1 (stereo not shown) [Example 11, 2-Amino-8-[3-(ethylsulfonimidoyl)phenyl]-N,N-dipropyl-3H-1-benzazepine-4-carboxamide] | 0.015 µM | 39 µM
CCCN(CCC)C(=O)C1=Cc2ccc(-c3cccc(S(C)(=N)=O)c3)cc2N=C(N)C1 (stereo not shown) [Example 7, 22-Amino-8-[3-(methylsulfonimidoyl)phenyl]-N,N-dipropyl-3H-1-benzazepine-4-carboxamide] | 0.013 µM | 15.4 µM
CCCN(CCC)C(=O)C1=Cc2ccc(-c3cncc(S(C)(=N)=O)c3)cc2N=C(N)C1 (stereo not shown) [Example 6, 2-Amino-8-[5-(methylsulfonimidoyl)-3-pyridyl]-N,N-dipropyl-3H-1-benzazepine-4-carboxamide] | 0.028 µM | 14.8 µM
